Measured values: PMC8659148, “Drug Repurposing for Influenza Virus Polymerase Acidic (PA) Endonuclease Inhibitor” (Molecules, 2021)

These compounds were tested against mutant PAN-I38T endonuclease (Influenza A virus, UniProt P03433, I38T).
Format: biochemical, influenza A type virus (H1N1)

How did the “inhibition of the endonuclease activity of PAN-I38T (in words)” value (“inhibition” below) turn out when `C[C@]12C=CC(=O)N[C@@H]1CC[C@@H]1[C@@H]2CC[C@]2(C)[C@@H](C(=O)Nc3cc(C(F)(F)F)ccc3C(F)(F)F)CC[C@@H]12` [dutasteride] was run?
Its value is “no inhibition”.

How did the “inhibition” value turn out when `CS(=O)(=O)c1cccc(C[C@H](NC(=O)c2c(Cl)cc3c(c2Cl)CCN(C(=O)c2ccc4ccoc4c2)C3)C(=O)O)c1` [lifitegrast] was run?
Its value is “inhibitory effect”.

`O=C1[C@@H]2[C@H]3CC[C@H](C3)[C@@H]2C(=O)N1C[C@@H]1CCCC[C@H]1CN1CCN(c2nsc3ccccc23)CC1` [lurasidone] was tested. Which “inhibition” value did it give?
Its value is “no inhibition”.

For `CO[C@H]1/C=C/O[C@@]2(C)Oc3c(C)c(O)c4c(O)c(c5c(nc6cc(C)ccn65)c4c3C2=O)NC(=O)/C(C)=C\C=C\[C@H](C)[C@H](O)[C@@H](C)[C@@H](O)[C@@H](C)[C@H](OC(C)=O)[C@@H]1C` [rifaximin], which “inhibition” value is on record?
The value was “no inhibition”.

With `CC(C)(C)NC(=O)[C@@H]1C[C@@H]2CCCC[C@@H]2CN1C[C@@H](O)[C@H](Cc1ccccc1)NC(=O)[C@H](CC(N)=O)NC(=O)c1ccc2ccccc2n1` [saquinavir] as the compound, how does the “inhibition” value read?
Its value is “no inhibition”.
